# pIC50, pKd: −log10 of the molar value.
# Key:
# [1] = target: T1, TYK2 (JH2domain-pseudokinase) (Homo sapiens, UniProt P29597); assay: TYK2 JH2 domain binding assay (KINOMEscan)
# T1 construct: TYK2 (JH2domain-pseudokinase)-tagged T7 phage strains were prepared in an E. coli host derived from the BL21 strain; made in house; host or cells: E. coli BL21-derived host (T7 phage) or HEK-293 cells
# Description: TYK2 (JH2domain-pseudokinase) KINOMEscan assay. For the assay, TYK2 (JH2domain-pseudokinase)-tagged T7 phage strains were prepared in an E. coli host derived from the BL21 strain.E. coli were grown to log-phase and infected with T7 phage and incubated with shaking at 32°C until lysis. The lysates were centrifuged and filtered to remove cell debris. The remaining TYK2 (JH2domain-pseudokinase) were produced in HEK-293 cells and subsequently tagged with DNA for qPCR detection. Streptavidin-coated magnetic beads were treated with biotinylated small molecule ligands for 30 minutes at room temperature to generate affinity resins for kinase assays. The liganded beads were blocked with excess biotin and washed with blocking buffer (SeaBlock (Pierce), 1% BSA, 0.05% Tween 20, 1 mM DTT) to remove unbound ligand and to reduce non-specific binding. Binding reactions were assembled by combining TYK2 (JH2domain-pseudokinase), liganded affinity beads, and test compounds in 1x binding buffer (20% SeaBlock, 0.17x PBS, 0.05% Tween 20, 6 mM DTT). Test compounds were prepared as 111X stocks in 100% DMSO. Kds were determined using an 11-point 3-fold compound dilution series with three DMSO control points. All compounds for Kd measurements are distributed by acoustic transfer (non-contact dispensing) in 100% DMSO. The compounds were then diluted directly into the assays such that the final concentration of DMSO was 0.9%. All reactions performed in polypropylene 384-well plate. Each was a final volume of 0.02 ml. The assay plates were incubated at room temperature with shaking for 1 hour and the affinity beads were washed with wash buffer (1x PBS, 0.05% Tween 20). The beads were then re-suspended in elution buffer (1x PBS, 0.05% Tween 20, 0.5 µM non-biotinylated affinity ligand) and incubated at room temperature with shaking for 30 minutes. The kinase concentration in the eluates was measured by qPCR. […]
# An 11-point 3-fold serial dilution of each test compound was prepared in 100% DMSO at 100x final test concentration and subsequently diluted to 1x in the assay (final DMSO concentration = 1%). Most Kds were determined using a compound top concentration = 30,000 nM. If the initial Kd determined was < 0.5 nM (the lowest concentration tested), the measurement was repeated with a serial dilution starting at a lower top concentration.
# Curves were fitted using a non-linear least square fit with the Levenberg-Marquardt algorithm. […] TABLE 1: Kd Affinities for Tyk2 JH2 Domain Binding Assay.
# [2] = test system: STAT1/3 through TYK2/JAK1; assay: IFNa induced STAT phosphorylation in HEK293 cells (SIE-bla reporter gene); format: cell-based; settings: Homo sapiens, HEK293; HEK293T-sie-bla cells, IFNa at EC80, 4 hours; read-out: Inhibition of IFNa induced STAT phosphorylation HEK293 cells IC50
# Description: Stimulation of HEK293T-sie-bla cells with interferon alpha (INFa) activates the signaling pathway of STAT1/3 through TYK2/JAK1. In this assay, measurement of the activity of the reporter gene […]-lactamase expression was used as the readout.
# CellSensorTM SIE-bla HEK293T cell line were purchased from Thermo Fisher Scientific (ref. #K1649B) and cultured as specified by the provider. A number of 30.000 cells per well (40 µl) were plated in a 384-well plate (Corning ref.# 3712) and cultured overnight at 37°C with 5% CO2 in a complete Optimem media (ThermoFisher ref. #11058-021) containing 0.5% (v/v) heat inactivated dialyzed FBS (Life Technologies ref. #26400044), 10 µM non-essential aminoacids NEAA (Sigma ref. #M7145), 100 µM Sodium Pyruvate (Gibco ref. #11360-039) and 100 U/mL Penicillin (Sigma ref. #P0781). Compounds were initially dissolved in 100% DMSO. Compound curves were then prepared using a 1/5 serial dilution (10 dilutions). The dilutions were directly diluted in complete Optimem media at 40-fold their final concentration in 20% DMSO. IFNa initial solution (R&D systems ref. #11100-1) was prepared at 10-fold its EC80 in complete Optimem media. Compounds and IFNa were added simultaneously to the wells with cells and incubated during 4 hours at 37°C (the final DMSO was 0.1%). The […]-lactamase substrate (LifeTechnologies ref.#K1138) was prepared at 6-fold its final concentration as specified by the provider. Then 10 µL of the mixture was added to the wells to stop the stimulation. Plate was left in the dark over-night. Then a FRET reading was performed on an appropriate plate reader.
# All experiments were analysed using an ExcelFit template and the four-parameter log equation. […] TABLE 2: IC50 Inhibitions of IFNa induced STAT phosphorylation in HEK293 cells
# T1 sequence (P29597 589-875 limits assumed): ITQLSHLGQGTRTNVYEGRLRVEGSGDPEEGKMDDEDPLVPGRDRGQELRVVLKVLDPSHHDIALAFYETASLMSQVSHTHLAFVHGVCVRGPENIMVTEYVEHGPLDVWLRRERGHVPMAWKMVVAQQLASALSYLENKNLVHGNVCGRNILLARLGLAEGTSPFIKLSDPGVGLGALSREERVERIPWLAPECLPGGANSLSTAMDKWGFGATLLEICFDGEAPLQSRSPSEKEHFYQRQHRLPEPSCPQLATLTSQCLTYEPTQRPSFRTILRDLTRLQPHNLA
Structure (SMILES),pKd [1],pIC50 [2]
"COc1c(Nc2cc(Nc3cc(C)nc(C)n3)ncn2)cccc1-c1ncn(C2COC2)n1 [Example 43, N4-(2,6-dimethylpyrimidin-4-yl)-N6-[2-methoxy-3-[1-(oxetan-3-yl)-1,2,4-triazol-3-yl]phenyl]pyrimidine-4,6-diamine]",9.00 to 9.70,6.00 to 7.00
"COc1c(Nc2cc(Nc3cc(C)nc(C)n3)ncn2)cccc1-c1nc(C(F)(F)F)n(C)n1 [Example 29, N6-(2,6-dimethylpyrimidin-4-yl)-N4-[2-methoxy-3-[1-methyl-5-(trifluoromethyl)-1,2,4-triazol-3-yl]phenyl]pyrimidine-4,6-diamine]",8.00 to 9.00,< 6.00
"Cc1cc(Nc2cc(Nc3ccccc3CS(C)(=O)=O)ncn2)nc(C)n1 [Example 66, N4-(2,6-dimethylpyrimidin-4-yl)-N6-[2-(methylsulfonylmethyl)phenyl]pyrimidine-4,6-diamine]",9.00 to 9.70,6.00 to 7.00
"Cc1cc(Nc2cc(Nc3ccccc3-c3ncn(C)n3)ncn2)nc(C)n1 [Example 79, N6-(2,6-dimethylpyrimidin-4-yl)-N4-[2-(1-methyl-1,2,4-triazol-3-yl)phenyl]pyrimidine-4,6-diamine]",,< 6.00
"COc1cc(-c2nc(C(F)(F)F)n(C)n2)ccc1Nc1cc(Nc2cc(C)nc(C)n2)ncn1 [Example 82, N6-(2,6-dimethylpyrimidin-4-yl)-N4-[2-methoxy-4-[1-methyl-5-(trifluoromethyl)-1,2,4-triazol-3-yl]phenyl]pyrimidine-4,6-diamine]",8.00 to 9.00,
"COc1c(Nc2cc(Nc3cc(C)nc(C)n3)ncn2)cccc1-c1ncn(C(F)F)n1 [Example 54, N4-[3-[1-(difluoromethyl)-1,2,4-triazol-3-yl]-2-methoxy-phenyl]-N6-(2,6-dimethylpyrimidin-4-yl)pyrimidine-4,6-diamine]",,6.00 to 7.00
"COc1c(Nc2cc(Nc3cc(C)nc(C)n3)ncn2)cccc1C1CCCCO1 (centres unmarked) [Example 56, N6-(2,6-dimethylpyrimidin-4-yl)-N4-(2-methoxy-3-tetrahydropyran-2-yl-phenyl)pyrimidine-4,6-diamine]",,< 6.00
"COc1c(Nc2cc(Nc3cc(C)nc(C)n3)ncn2)cccc1-c1ncn(C2CC(O)C2)n1 (centres unmarked) [Example 58, 3-[3-[3-[[6-[(2,6-dimethylpyrimidin-4-yl)amino]pyrimidin-4-yl]amino]-2-methoxy-phenyl]-1,2,4-triazol-1-yl]cyclobutanol]",,6.00 to 7.00
"COc1ccc(Nc2cc(Nc3cc(C)nc(C)n3)ncn2)c(OC)c1 [Example 17, N4-(2,4-dimethoxyphenyl)-N6-(2,6-dimethylpyrimidin-4-yl)pyrimidine-4,6-diamine]",,< 6.00
"Cc1cc(Nc2cc(Nc3cnccc3N(C)S(C)(=O)=O)ncn2)nc(C)n1 [Example 35, N-[3-[[6-[(2,6-dimethylpyrimidin-4-yl)amino]pyrimidin-4-yl]amino]pyridin-4-yl]-N-methylmethanesulfonamide]",< 8.00,
"[2H]C([2H])([2H])N(c1cc(-c2cnn(C)c2C)ccc1Nc1cc(Nc2cc(C)nc(C)n2)ncn1)S(C)(=O)=O [Example 98, N-[5-(1,5-dimethylpyrazol-4-yl)-2-[[6-[(2,6-dimethylpyrimidin-4-yl)amino]pyrimidin-4-yl]amino]phenyl]-N-(trideuteriomethyl)methanesulfonamide]",,< 6.00

# Results, then the molecule that gave them:
pKd [1],pIC50 [2],Structure (SMILES)
9.00 to 9.70,7.00 to 8.00,"COc1c(Nc2cc(Nc3cc(C)nc(C)n3)ncn2)cccc1-c1ncn(CC2CCCCO2)n1 (centres unmarked) [Example 47, N4-(2,6-dimethylpyrimidin-4-yl)-N6-[2-methoxy-3-[1-(tetrahydropyran-2-ylmethyl)-1,2,4-triazol-3-yl]phenyl]pyrimidine-4,6-diamine]"
> 9.70,7.00 to 8.00,"Cc1cc(Nc2cc(Nc3ncc(-c4ocnc4C)cc3N(C)S(C)(=O)=O)ncn2)nc(C)n1 [Example 170, N-[2-[[6-[(2,6-dimethylpyrimidin-4-yl)amino]pyrimidin-4-yl]amino]-5-(4-methyl-1,3-oxazol-5-yl)pyridin-3-yl]-N-methylmethanesulfonamide]"
9.00 to 9.70,7.00 to 8.00,"COc1c(Nc2cc(Nc3cc(C)nc(C)n3)ncn2)ccc(C)c1-c1ncn(C)n1 [Example 63, 6-N-(2,6-dimethylpyrimidin-4-yl)-4-N-[2-methoxy-4-methyl-3-(1-methyl-1,2,4-triazol-3-yl)phenyl]pyrimidine-4,6-diamine]"
> 9.70,7.00 to 8.00,"Cc1cc(Nc2cc(Nc3ncc(C4CC4)cc3P(C)(C)=O)ncn2)nc(C)n1 [Example 171, 4-N-(5-cyclopropyl-3-dimethylphosphorylpyridin-2-yl)-6-N-(2,6-dimethylpyrimidin-4-yl)pyrimidine-4,6-diamine]"
,7.00 to 8.00,"COc1c(Nc2cc(Nc3cc(C)nc(C)n3)ncn2)cccc1-c1ncn(CC2CCCO2)n1 (centres unmarked) [Example 59, N4-(2,6-dimethylpyrimidin-4-yl)-N6-[2-methoxy-3-[1-(tetrahydrofuran-2-ylmethyl)-1,2,4-triazol-3-yl]phenyl]pyrimidine-4,6-diamine]"
,> 8.00,"CN=S(C)(=O)c1cc(C2CC2)ccc1Nc1cc(Nc2cc(C)nc(C)n2)ncn1 (centres unmarked) [Example 118, N4-[4-cyclopropyl-2-(N,S-dimethylsulfonimidoyl)phenyl]-N6-(2,6-dimethylpyrimidin-4-yl)pyrimidine-4,6-diamine]"
,> 8.00,"Cc1cc(Nc2cc(Nc3ncc(-c4cnn(C)c4C)cc3[S+](C)[O-])ncn2)nc(C)n1 (centres unmarked) [Example 173, N4-[5-(1,5-dimethylpyrazol-4-yl)-3-methylsulfinyl-2-pyridyl]-N6-(2,6-dimethylpyrimidin-4-yl)pyrimidine-4,6-diamine]"
,7.00 to 8.00,"COc1c(Nc2cc(Nc3cc(C)nc(C)n3)ncn2)cccc1-c1ncn(CC2CCCOC2)n1 (centres unmarked) [Example 57, N4-(2,6-dimethylpyrimidin-4-yl)-N6-[2-methoxy-3-[1-(tetrahydropyran-3-ylmethyl)-1,2,4-triazol-3-yl]phenyl]pyrimidine-4,6-diamine]"
,7.00 to 8.00,"COc1c(Nc2cc(Nc3cc(C)nc(C)n3)ncn2)cccc1-c1ncn(CC2CCOC2)n1 (centres unmarked) [Example 60, N6-(2,6-dimethylpyrimidin-4-yl)-N4-[2-methoxy-3-[1-(tetrahydrofuran-3-ylmethyl)-1,2,4-triazol-3-yl]phenyl]pyrimidine-4,6-diamine]"
,> 8.00,"Cc1cc(Nc2cc(Nc3ncc(C4CCCCO4)cc3S(C)(=O)=O)ncn2)nc(C)n1 (centres unmarked) [Example 175, 6-N-(2,6-dimethylpyrimidin-4-yl)-4-N-[3-methylsulfonyl-5-(oxan-2-yl)pyridin-2-yl]pyrimidine-4,6-diamine]"
,7.00 to 8.00,"COc1c(-c2ncn(C)n2)ccnc1Nc1cc(Nc2ccc(F)c(C)n2)ncn1 [Example 174, N4-(5-fluoro-6-methyl-2-pyridyl)-N6-[3-methoxy-4-(1-methyl-1,2,4-triazol-3-yl)-2-pyridyl]pyrimidine-4,6-diamine]"

# — patent EP4206196A1, “PYRIMIDINE SUBSTITUTED DERIVATIVES AS TYK2 INHIBITORS” (Almirall S.A., priority 2021, dated 2023)
